Measurements taken from ChEMBL document CHEMBL3885861, “Open TG-GATES”.

Organism: Rattus norvegicus
Assay: Open TG-GATES - Regimen: Daily Repeat
Assay type: toxicity, organism-based, Sprague-Dawley
Set-up: regimen Daily Repeat, gender Male, age 6 weeks
Settings: in vivo, po, 100 mg/kg, route gavage, dose level Low; for APTT / Bas / Eos / Fbg / Hb / Ht / Lym / MCH / MCHC / MCV / Mono / Neu / PT / Plat / RBC / Ret / WBC: tissue Blood; for KIDNEY_L / KIDNEY_R / KIDNEY_TOTAL: tissue Kidney; for LIVER: tissue Liver; for A/G / ALP / ALT / AST / BUN / CRE / Ca / Cl / DBIL / GLC / IP / K / LDH / Na / PL / RALB / TBIL / TC / TG / TP / gamma-GTP: tissue Plasma

SMILES: CCOc1ccc(NC(=O)CC(C)O)cc1 (configuration not stated) [BUCETIN]
- TERMINAL_BW (72 h, time 3 day): 249.8 g
- APTT (72 h, time 3 day): 17.5 s
- Bas (72 h, time 3 day): 0%
- Eos (72 h, time 3 day): 0.8%
- Fbg (72 h, time 3 day): 309.6 mg/dL
- Hb (72 h, time 3 day): 13.8 g/dL
- Ht (72 h, time 3 day): 41.5%
- Lym (72 h, time 3 day): 76.4%
- MCH (72 h, time 3 day): 21.2 pg
- MCHC (72 h, time 3 day): 33.2%
- MCV (72 h, time 3 day): 63.9 fL
- Mono (72 h, time 3 day): 3.4%
- Neu (72 h, time 3 day): 18.8%
- PT (72 h, time 3 day): 14.1 s
- Plat (72 h, time 3 day): 126.2 x10_4/uL
- RBC (72 h, time 3 day): 650.6 x10_4/ul
- Ret (72 h, time 3 day): 6.9%
- WBC (72 h, time 3 day): 79.2 x10_2/uL
- KIDNEY_L (72 h, time 3 day): 1 g
- KIDNEY_R (72 h, time 3 day): 1.1 g
- KIDNEY_TOTAL (72 h, time 3 day): 2.1 g
- LIVER (72 h, time 3 day): 12.1 g
- A/G (72 h, time 3 day): 0.9
- ALP (72 h, time 3 day): 1621.2 IU/L
- ALT (72 h, time 3 day): 35.2 IU/L
- AST (72 h, time 3 day): 62.4 IU/L
- BUN (72 h, time 3 day): 14.4 mg/dL
- CRE (72 h, time 3 day): 0.2 mg/dL
- Ca (72 h, time 3 day): 11 mg/dL
- Cl (72 h, time 3 day): 105.6 meq/L
- DBIL (72 h, time 3 day): 0.02 mg/dL
- GLC (72 h, time 3 day): 188.4 mg/dL
- IP (72 h, time 3 day): 7.6 mg/dL
- K (72 h, time 3 day): 4.2 meq/L
- LDH (72 h, time 3 day): 76.6 IU/L
- Na (72 h, time 3 day): 143 meq/L
- PL (72 h, time 3 day): 163.8 mg/dL
- RALB (72 h, time 3 day): 2.7 g/dL
- TBIL (72 h, time 3 day): 0.044 mg/dL
- TC (72 h, time 3 day): 82 mg/dL
- TG (72 h, time 3 day): 116.4 mg/dL
- TP (72 h, time 3 day): 5.9 g/dL
- gamma-GTP (72 h, time 3 day): 1 IU/L
- TERMINAL_BW ([…], time 7 day): 303 g
- TERMINAL_BW ([…], time 14 day): 338.2 g
- TERMINAL_BW ([…], time 28 day): 405.9 g
- APTT ([…], time 7 day): 17.7 s
- Bas ([…], time 7 day): 0%
- Eos ([…], time 7 day): 0.8%
- Fbg ([…], time 7 day): 276.6 mg/dL
- Hb ([…], time 7 day): 13.4 g/dL
- Ht ([…], time 7 day): 40.1%
- Lym ([…], time 7 day): 77.8%
- MCH ([…], time 7 day): 20.5 pg
- MCHC ([…], time 7 day): 33.5%
- MCV ([…], time 7 day): 61.2 fL
- Mono ([…], time 7 day): 2.8%
- Neu ([…], time 7 day): 17.6%
- PT ([…], time 7 day): 14 s
- Plat ([…], time 7 day): 121.8 x10_4/uL
- RBC ([…], time 7 day): 655.4 x10_4/ul
- Ret ([…], time 7 day): 5.8%
- WBC ([…], time 7 day): 116.6 x10_2/uL
- APTT ([…], time 14 day): 19.2 s
- Bas ([…], time 14 day): 0%
- Eos ([…], time 14 day): 0.8%
- Fbg ([…], time 14 day): 287.8 mg/dL
- Hb ([…], time 14 day): 14.6 g/dL
- Ht ([…], time 14 day): 43.2%
- Lym ([…], time 14 day): 74.6%
- MCH ([…], time 14 day): 20.1 pg
- MCHC ([…], time 14 day): 33.9%
- MCV ([…], time 14 day): 59.3 fL
- Mono ([…], time 14 day): 2.4%
- Neu ([…], time 14 day): 21.4%
- PT ([…], time 14 day): 13.9 s
- Plat ([…], time 14 day): 116.5 x10_4/uL
- RBC ([…], time 14 day): 729.2 x10_4/ul
- Ret ([…], time 14 day): 4.1%
- WBC ([…], time 14 day): 86.9 x10_2/uL
- APTT ([…], time 28 day): 17.9 s
- Bas ([…], time 28 day): 0.2%
- Eos ([…], time 28 day): 1%
- Fbg ([…], time 28 day): 280.4 mg/dL
- Hb ([…], time 28 day): 15.6 g/dL
- Ht ([…], time 28 day): 44.9%
- Lym ([…], time 28 day): 81%
- MCH ([…], time 28 day): 19.5 pg
- MCHC ([…], time 28 day): 34.9%
- MCV ([…], time 28 day): 55.9 fL
- Mono ([…], time 28 day): 2%
- Neu ([…], time 28 day): 15%
- PT ([…], time 28 day): 14.1 s
- Plat ([…], time 28 day): 114.4 x10_4/uL
- RBC ([…], time 28 day): 802.8 x10_4/ul
- Ret ([…], time 28 day): 2.5%
- WBC ([…], time 28 day): 132 x10_2/uL
- KIDNEY_L ([…], time 7 day): 1.3 g
- KIDNEY_R ([…], time 7 day): 1.3 g
- KIDNEY_TOTAL ([…], time 7 day): 2.5 g
- KIDNEY_L ([…], time 14 day): 1.3 g
- KIDNEY_R ([…], time 14 day): 1.2 g
- KIDNEY_TOTAL ([…], time 14 day): 2.5 g
- KIDNEY_L ([…], time 28 day): 1.4 g
- KIDNEY_R ([…], time 28 day): 1.4 g
- KIDNEY_TOTAL ([…], time 28 day): 2.9 g
- LIVER ([…], time 7 day): 14.8 g
- LIVER ([…], time 14 day): 14.9 g
- LIVER ([…], time 28 day): 16.3 g
- A/G ([…], time 7 day): 0.8
- ALP ([…], time 7 day): 1437.2 IU/L
- ALT ([…], time 7 day): 42.8 IU/L
- AST ([…], time 7 day): 69.6 IU/L
- BUN ([…], time 7 day): 15.8 mg/dL
- CRE ([…], time 7 day): 0.2 mg/dL
- Ca ([…], time 7 day): 11 mg/dL
- Cl ([…], time 7 day): 105 meq/L
- DBIL ([…], time 7 day): 0.022 mg/dL
- GLC ([…], time 7 day): 188.4 mg/dL
- IP ([…], time 7 day): 7.3 mg/dL
- K ([…], time 7 day): 4.2 meq/L
- LDH ([…], time 7 day): 103.8 IU/L
- Na ([…], time 7 day): 144.4 meq/L
- PL ([…], time 7 day): 172.8 mg/dL
- RALB ([…], time 7 day): 2.7 g/dL
- TBIL ([…], time 7 day): 0.04 mg/dL
- TC ([…], time 7 day): 80.6 mg/dL
- TG ([…], time 7 day): 143 mg/dL
- TP ([…], time 7 day): 6 g/dL
- gamma-GTP ([…], time 7 day): 1.2 IU/L
- A/G ([…], time 14 day): 0.8
- ALP ([…], time 14 day): 1590.2 IU/L
- ALT ([…], time 14 day): 34.4 IU/L
- AST ([…], time 14 day): 62.6 IU/L
- BUN ([…], time 14 day): 14.6 mg/dL
- CRE ([…], time 14 day): 0.2 mg/dL
- Ca ([…], time 14 day): 11.1 mg/dL
- Cl ([…], time 14 day): 105.8 meq/L
- DBIL ([…], time 14 day): 0.02 mg/dL
- GLC ([…], time 14 day): 191 mg/dL
- IP ([…], time 14 day): 7.4 mg/dL
- K ([…], time 14 day): 3.8 meq/L
- LDH ([…], time 14 day): 77.4 IU/L
- Na ([…], time 14 day): 145.2 meq/L
- PL ([…], time 14 day): 159.2 mg/dL
- RALB ([…], time 14 day): 2.8 g/dL
- TBIL ([…], time 14 day): 0.06 mg/dL
- TC ([…], time 14 day): 71.2 mg/dL
- TG ([…], time 14 day): 145 mg/dL
- TP ([…], time 14 day): 6.1 g/dL
- gamma-GTP ([…], time 14 day): 1.2 IU/L
- A/G ([…], time 28 day): 0.8
- ALP ([…], time 28 day): 1115.2 IU/L
- ALT ([…], time 28 day): 32.6 IU/L
- AST ([…], time 28 day): 64.6 IU/L
- BUN ([…], time 28 day): 15.8 mg/dL
- CRE ([…], time 28 day): 0.3 mg/dL
- Ca ([…], time 28 day): 11 mg/dL
- Cl ([…], time 28 day): 104.8 meq/L
- DBIL ([…], time 28 day): 0.022 mg/dL
- GLC ([…], time 28 day): 188.6 mg/dL
- IP ([…], time 28 day): 5.9 mg/dL
- K ([…], time 28 day): 3.9 meq/L
- LDH ([…], time 28 day): 82.8 IU/L
- Na ([…], time 28 day): 145.2 meq/L
- PL ([…], time 28 day): 155 mg/dL
- RALB ([…], time 28 day): 2.9 g/dL
- TBIL ([…], time 28 day): 0.06 mg/dL
- TC ([…], time 28 day): 70.4 mg/dL
- TG ([…], time 28 day): 145 mg/dL
- TP ([…], time 28 day): 6.4 g/dL
- gamma-GTP ([…], time 28 day): 1.4 IU/L
